Patent US8952024B2, “Herbicidal pyrimidone derivatives” (E I du Pont de Nemours and Company, priority 2009, dated 2015)

Experiments:
Test in all cases: Test D pre-/postemergence plant response
Assay type in all cases: in vivo
[1] = tested on: green foxtail (Setaria viridis); conditions: Postemergence
Outline: (§1)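 Seeds were sown in a loam–sand blend and sprayed preemergence with compound in a non-phytotoxic solvent mixture containing surfactant; plants at 2–18 cm (1- to 4-leaf stage) received the same formulation postemergence. After 14 to 21 days in a greenhouse, injury was rated visually against untreated controls (0 = no effect, 100 = complete control).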

[2] = tested on: guineagrass (Panicum maximum); conditions: Postemergence
Outline: as §1

[3] = tested on: barnyardgrass (Echinochloa crus-galli); conditions: Postemergence, scale 0 to 100 (0 no effect, 100 complete control)
Outline: as §1

[4] = tested on: Surinam grass (Brachiaria decumbens); conditions: Postemergence
Outline: as §1

[5] = tested on: signalgrass (broadleaf signalgrass, Brachiaria platyphylla); conditions: Postemergence
Outline: as §1

[6] = tested on: nutsedge (purple nutsedge, Cyperus rotundus); conditions: Postemergence
Outline: as §1

[7] = tested on: mallow (common mallow, Malva sylvestris); conditions: Postemergence
Outline: as §1

[8] = tested on: itchgrass (Rottboellia cochinchinensis); conditions: Postemergence
Outline: as §1

[9] = tested on: field bindweed (Convolvulus arvensis); conditions: Postemergence
Outline: as §1

[10] = tested on: morningglory (pitted morningglory, Ipomoea lacunosa); conditions: Postemergence
Outline: as §1

[11] = tested on: johnsongrass (Sorghum halepense); conditions: Postemergence
Outline: as §1

[12] = tested on: large crabgrass (Digitaria sanguinalis); conditions: Postemergence
Outline: as §1

[13] = tested on: bluegrass (annual bluegrass, Poa annua); conditions: Postemergence, scale 0 to 100 (0 no effect, 100 complete control)
Outline: as §1

[14] = tested on: chickweed (common chickweed, Stellaria media); conditions: Postemergence
Outline: as §1

[15] = tested on: black mustard (Brassica nigra); conditions: Postemergence, scale 0 to 100 (0 no effect, 100 complete control)
Outline: as §1

[16] = tested on: sowthistle (common sowthistle, Sonchus oleraceous); conditions: Postemergence
Outline: as §1

[17] = tested on: goosegrass (Eleusine indica); conditions: Postemergence
Outline: as §1

kochia (Kochia scoparia) = conditions: Postemergence
Outline: as §1

[18] = 62 g ai/ha, scale 0 to 100 (0 no effect, 100 complete control)
[19] = 125 g ai/ha, scale 0 to 100 (0 no effect, 100 complete control)
[20] = 250 g ai/ha, scale 0 to 100 (0 no effect, 100 complete control)

COCCn1c(-c2cccc(F)c2)ncc(C(=O)C2=C(O)C3CCC(C3)C2=O)c1=O (centres unmarked) [Compound 235]
30: Plant response rating, Nutsedge, Purple [6, 19] | Plant response rating, Chickweed [14, 18]
35: Plant response rating, Bluegrass ([13]; 125 g ai/ha)
85: Plant response rating, Surinam Grass [4, 20] | Plant response rating, Johnsongrass [11, 19] | Plant response rating, Johnsongrass [11, 20] | Plant response rating, Kochia (kochia (Kochia scoparia); [20])
75: Plant response rating, Guineagrass ([2]; 31 g ai/ha, scale 0 to 100) | Plant response rating, Guineagrass [2, 18] | Plant response rating, Guineagrass [2, 19] | Plant response rating, Guineagrass [2, 20] | Plant response rating, Surinam Grass ([4]; 31 g ai/ha, scale 0 to 100) | Plant response rating, Surinam Grass [4, 18] | Plant response rating, Surinam Grass [4, 19] | Plant response rating, Itchgrass [8, 18] | Plant response rating, Morningglory ([10]; 31 g ai/ha, scale 0 to 100) | Plant response rating, Morningglory [10, 18] | Plant response rating, Crabgrass, Large [12, 18] | Plant response rating, Crabgrass, Large [12, 19] | Plant response rating, Goosegrass ([17]; 31 g ai/ha, scale 0 to 100) | Plant response rating, Goosegrass [17, 18] | Plant response rating, Goosegrass [17, 19] | Plant response rating, Goosegrass [17, 20]
95: Plant response rating, Foxtail, Green [1, 18] | Plant response rating, Barnyardgrass ([3]; 125 g ai/ha) | Plant response rating, Barnyardgrass ([3]; 250 g ai/ha) | Plant response rating, Signalgrass [5, 20] | Plant response rating, Morningglory [10, 19] | Plant response rating, Morningglory [10, 20]
10: Plant response rating, Mallow ([7]; 31 g ai/ha, scale 0 to 100)
5: Plant response rating, Nutsedge, Purple ([6]; 31 g ai/ha, scale 0 to 100) | Plant response rating, Nutsedge, Purple [6, 18] | Plant response rating, Bluegrass ([13]; 31 g ai/ha) | Plant response rating, Chickweed ([14]; 31 g ai/ha, scale 0 to 100)
60: Plant response rating, Field Bindweed ([9]; 31 g ai/ha, scale 0 to 100) | Plant response rating, Chickweed [14, 19] | Plant response rating, Kochia (kochia (Kochia scoparia); [18])
50: Plant response rating, Mallow [7, 18] | Plant response rating, Bluegrass ([13]; 250 g ai/ha)
40: Plant response rating, Nutsedge, Purple [6, 20]
65: Plant response rating, Signalgrass ([5]; 31 g ai/ha, scale 0 to 100) | Plant response rating, Field Bindweed [9, 18] | Plant response rating, Field Bindweed [9, 19]
70: Plant response rating, Foxtail, Green ([1]; 31 g ai/ha, scale 0 to 100) | Plant response rating, Mallow [7, 19] | Plant response rating, Mallow [7, 20] | Plant response rating, Itchgrass ([8]; 31 g ai/ha, scale 0 to 100) | Plant response rating, Field Bindweed [9, 20] | Plant response rating, Johnsongrass ([11]; 31 g ai/ha, scale 0 to 100) | Plant response rating, Johnsongrass [11, 18] | Plant response rating, Crabgrass, Large ([12]; 31 g ai/ha, scale 0 to 100) | Plant response rating, Chickweed [14, 20] | Plant response rating, Kochia (kochia (Kochia scoparia); [19])
80: Plant response rating, Barnyardgrass ([3]; 31 g ai/ha) | Plant response rating, Barnyardgrass ([3]; 62 g ai/ha) | Plant response rating, Itchgrass [8, 19] | Plant response rating, Crabgrass, Large [12, 20] | Plant response rating, Black Mustard ([15]; 31 g ai/ha) | Plant response rating, Black Mustard ([15]; 62 g ai/ha)
90: Plant response rating, Signalgrass [5, 18] | Plant response rating, Signalgrass [5, 19] | Plant response rating, Itchgrass [8, 20]
98: Plant response rating, Foxtail, Green [1, 19] | Plant response rating, Foxtail, Green [1, 20] | Plant response rating, Black Mustard ([15]; 125 g ai/ha) | Plant response rating, Black Mustard ([15]; 250 g ai/ha) | Plant response rating, Sowthistle ([16]; 31 g ai/ha, scale 0 to 100) | Plant response rating, Sowthistle [16, 18] | Plant response rating, Sowthistle [16, 19] | Plant response rating, Sowthistle [16, 20]
20: Plant response rating, Bluegrass ([13]; 62 g ai/ha) | Plant response rating, Kochia (kochia (Kochia scoparia); 31 g ai/ha, scale 0 to 100)

COCCCn1c(-c2cccc(F)c2)ncc(C(=O)C2=C(O)C3CCC(C3)C2=O)c1=O (centres unmarked) [Compound 238]
85: Plant response rating, Barnyardgrass ([3]; 125 g ai/ha) | Plant response rating, Surinam Grass [4, 20]
80: Plant response rating, Foxtail, Green [1, 18] | Plant response rating, Foxtail, Green [1, 19] | Plant response rating, Barnyardgrass ([3]; 62 g ai/ha) | Plant response rating, Itchgrass [8, 20] | Plant response rating, Morningglory [10, 18] | Plant response rating, Morningglory [10, 19] | Plant response rating, Johnsongrass [11, 20] | Plant response rating, Crabgrass, Large [12, 20] | Plant response rating, Black Mustard ([15]; 31 g ai/ha)
60: Plant response rating, Signalgrass [5, 19] | Plant response rating, Mallow [7, 20] | Plant response rating, Johnsongrass ([11]; 31 g ai/ha, scale 0 to 100)
5: Plant response rating, Nutsedge, Purple ([6]; 31 g ai/ha, scale 0 to 100) | Plant response rating, Bluegrass ([13]; 62 g ai/ha)
40: Plant response rating, Bluegrass ([13]; 250 g ai/ha) | Plant response rating, Chickweed [14, 19]
98: Plant response rating, Black Mustard ([15]; 125 g ai/ha) | Plant response rating, Black Mustard ([15]; 250 g ai/ha)
95: Plant response rating, Foxtail, Green [1, 20] | Plant response rating, Barnyardgrass ([3]; 250 g ai/ha) | Plant response rating, Black Mustard ([15]; 62 g ai/ha) | Plant response rating, Sowthistle ([16]; 31 g ai/ha, scale 0 to 100) | Plant response rating, Sowthistle [16, 18] | Plant response rating, Sowthistle [16, 19] | Plant response rating, Sowthistle [16, 20]
50: Plant response rating, Guineagrass [2, 18] | Plant response rating, Mallow [7, 19] | Plant response rating, Field Bindweed [9, 18] | Plant response rating, Field Bindweed [9, 20] | Plant response rating, Crabgrass, Large ([12]; 31 g ai/ha, scale 0 to 100) | Plant response rating, Chickweed [14, 20] | Plant response rating, Goosegrass ([17]; 31 g ai/ha, scale 0 to 100) | Plant response rating, Kochia (kochia (Kochia scoparia); [18])
10: Plant response rating, Nutsedge, Purple [6, 18]
35: Plant response rating, Signalgrass [5, 18] | Plant response rating, Mallow [7, 18] | Plant response rating, Field Bindweed ([9]; 31 g ai/ha, scale 0 to 100) | Plant response rating, Chickweed [14, 18]
30: Plant response rating, Chickweed ([14]; 31 g ai/ha, scale 0 to 100)
25: Plant response rating, Guineagrass ([2]; 31 g ai/ha, scale 0 to 100) | Plant response rating, Mallow ([7]; 31 g ai/ha, scale 0 to 100)
90: Plant response rating, Morningglory [10, 20]
70: Plant response rating, Itchgrass ([8]; 31 g ai/ha, scale 0 to 100) | Plant response rating, Itchgrass [8, 18] | Plant response rating, Morningglory ([10]; 31 g ai/ha, scale 0 to 100) | Plant response rating, Johnsongrass [11, 18] | Plant response rating, Crabgrass, Large [12, 18] | Plant response rating, Goosegrass [17, 18]
0: Plant response rating, Bluegrass ([13]; 31 g ai/ha)
75: Plant response rating, Foxtail, Green ([1]; 31 g ai/ha, scale 0 to 100) | Plant response rating, Guineagrass [2, 20] | Plant response rating, Barnyardgrass ([3]; 31 g ai/ha) | Plant response rating, Surinam Grass ([4]; 31 g ai/ha, scale 0 to 100) | Plant response rating, Surinam Grass [4, 18] | Plant response rating, Surinam Grass [4, 19] | Plant response rating, Itchgrass [8, 19] | Plant response rating, Johnsongrass [11, 19] | Plant response rating, Crabgrass, Large [12, 19] | Plant response rating, Goosegrass [17, 19] | Plant response rating, Goosegrass [17, 20] | Plant response rating, Kochia (kochia (Kochia scoparia); [20])
65: Plant response rating, Guineagrass [2, 19] | Plant response rating, Signalgrass [5, 20] | Plant response rating, Kochia (kochia (Kochia scoparia); [19])
20: Plant response rating, Signalgrass ([5]; 31 g ai/ha, scale 0 to 100) | Plant response rating, Nutsedge, Purple [6, 19] | Plant response rating, Nutsedge, Purple [6, 20] | Plant response rating, Bluegrass ([13]; 125 g ai/ha) | Plant response rating, Kochia (kochia (Kochia scoparia); 31 g ai/ha, scale 0 to 100)
